What was measured:
[1] = tested on: diarrhea; assay: Inducing effect of diarrhea (rats, oral administration)
[2] = tested on: Diclofenac sodium-induced stomach ulcer; assay: Administering time of Ornoprostil and suppression of Diclofenac sodium-induced stomach ulcer; assay type: in vivo, rat; conditions: for Antiulcer coefficient: inhibition ratio/incidence rate; for Incidence rate of ulcer (Number of Examples): rat oral
[3] = tested on: glycerol-induced nephropathy; assay: Glycerol-induced nephropathy; assay type: in vivo, rat; conditions: serum 48 hours after glycerol
Protocol: After weighing SPF/Crj strain maleness rats (9 weeks of ages), they were so divided that average weight of each group might almost be equal. At 48 hours after 50% glycerol (10 ml/kg) (medium: physiological salt solution) was subcutaneously administered to rats deprived water for 48 hours (±2 hour) on […], about 1.5 ml of blood was gathered from the jugular under ether anesthesia. […] Water was supplied to them 2 hour later from administration of glycerol. Those serums were obtained by centrifugal separation (for about 4° C., 3000 rpm, for 15 minutes) of the gathered blood. Urea nitrogen (abbreviated as UN.) (urease·GIDH method) and creatinine (abbreviated as CRE.) (Creatininase·F-DAOS method) in the obtained serum were measured with the biochemistry automated analyzer (AU400 (trade name), Olympus Optical Co., Ltd.).

[4] = OU 0 minutes before Di administering
[5] = OU 5 minutes after Di administering
[6] = OU 5 minutes before Di administering
[7] = OU 10 minutes after Di administering
[8] = OU 10 minutes before Di administering
[9] = OU 30 minutes after Di administering
[10] = OU 30 minutes before Di administering
[11] = OU 60 minutes after Di administering
[12] = OU 60 minutes before Di administering
[13] = GC (subcutis) + OU (10 μg) oral

## 15-deoxy-16-hydroxy-16-methyl-PGE1 methyl ester [Misoprostol]
[1]; 50 μg/kg
  Number of animals which cause diarrhea/number of laboratory animals: 0/5
[1]; 100 μg/kg
  Number of animals which cause diarrhea/number of laboratory animals: 1/5

## CCCC[C@H](C)C[C@H](O)/C=C/[C@H]1[C@H](O)CC(=O)[C@@H]1CC(=O)CCCCC(=O)OC [Ornoprostil, 17S, 20-dimethyl-6-keto PGE1 methyl ester]
[1]
  Dose which generates induced effect of diarrhea: ≥ 400 µg/kg
[2]; [4]
  Antiulcer coefficient: 86.9
  Incidence rate of ulcer (Number of Examples): 7/8
[2]; [5]
  Antiulcer coefficient: 7.1
  Incidence rate of ulcer (Number of Examples): 7/8
[2]; [6]
  Antiulcer coefficient: 100.9
  Incidence rate of ulcer (Number of Examples): 6/8
[2]; [7]
  Antiulcer coefficient: 28.8
  Incidence rate of ulcer (Number of Examples): 8/8
[2]; [8]
  Antiulcer coefficient: 125.1
  Incidence rate of ulcer (Number of Examples): 5/8
[2]; [9]
  Antiulcer coefficient: 16.1
  Incidence rate of ulcer (Number of Examples): 7/8
[2]; [10]
  Antiulcer coefficient: 56.2
  Incidence rate of ulcer (Number of Examples): 7/8
[2]; [11]
  Antiulcer coefficient: 4.1
  Incidence rate of ulcer (Number of Examples): 6/8
[2]; [12]
  Antiulcer coefficient: 97.3
  Incidence rate of ulcer (Number of Examples): 7/8
[3]; GC (subcutis) + OU (3 μg) oral
  CRE (serum creatinine): 1.38 mg/dL
  UN (serum urea nitrogen): 89.7 mg/dL
[3]; [13]
  CRE (serum creatinine): 1.03 mg/dL
  UN (serum urea nitrogen): 79.9 mg/dL

— patent US20040068014A1 (priority 2001, published 2004)
